The results in this text go back to paper PMC5462101 (Future medicinal chemistry, 2015).

The structures appear in SMILES notation.

The target of one assay is T1, soybean lipoxygenase (Glycine max, UniProt P08170).
T1 construct: purchased Sigma
T1 sequence (P08170 1-839): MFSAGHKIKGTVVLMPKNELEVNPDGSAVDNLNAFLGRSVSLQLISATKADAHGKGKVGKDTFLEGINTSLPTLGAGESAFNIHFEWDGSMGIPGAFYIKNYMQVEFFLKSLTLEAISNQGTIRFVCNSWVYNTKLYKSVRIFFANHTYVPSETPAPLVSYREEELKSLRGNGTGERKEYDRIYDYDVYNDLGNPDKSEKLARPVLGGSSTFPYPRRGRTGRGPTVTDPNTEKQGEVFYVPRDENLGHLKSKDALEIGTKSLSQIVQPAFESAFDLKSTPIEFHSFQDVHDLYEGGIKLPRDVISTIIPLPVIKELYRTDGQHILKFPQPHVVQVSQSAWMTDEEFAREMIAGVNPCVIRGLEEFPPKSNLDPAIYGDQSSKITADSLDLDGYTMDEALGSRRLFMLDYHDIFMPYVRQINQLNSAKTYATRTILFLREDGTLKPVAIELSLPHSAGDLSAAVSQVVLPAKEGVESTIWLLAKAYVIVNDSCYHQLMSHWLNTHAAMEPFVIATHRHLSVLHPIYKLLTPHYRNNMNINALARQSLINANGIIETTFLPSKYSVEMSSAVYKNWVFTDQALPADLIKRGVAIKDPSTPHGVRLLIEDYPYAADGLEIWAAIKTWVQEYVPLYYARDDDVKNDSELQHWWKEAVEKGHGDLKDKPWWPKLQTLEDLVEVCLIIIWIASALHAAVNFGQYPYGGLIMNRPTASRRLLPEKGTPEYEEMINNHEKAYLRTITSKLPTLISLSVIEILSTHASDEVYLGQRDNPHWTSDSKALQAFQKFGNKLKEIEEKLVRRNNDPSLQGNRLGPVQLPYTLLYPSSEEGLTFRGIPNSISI
Put plainly: Inhibition of soybean lipoxygenase. Format: biochemical. The settings on record: sodium linoleate 0.1 mM, read-out: Lipoxygenase inhibitory activity (IC50). Here is the method: The substituted pteridines prepared were assayed for inhibition of soybean lipoxygenase (Table 1) (Supplementary Information). Many studies have used readily obtainable soybean lipoxygenase, which is a homologue of mammalian lipoxygenase and well examined. The availability of soybean LOX and its well-characterized crystal structure led to its use in this study.
Determination of soybean lipoxygenase inhibition
A solution in DMSO of each compound to be tested was incubated at room temperature with sodium linoleate (0.1 mM) and a solution of soybean lipoxygenase (EC 1.13.11.12) (1:9 x 10^4 w/v in saline, 0.2 mL, Sigma). The conversion of sodium linoleate to 13-hydroperoxylinoleic acid was monitored by observation at 234 nm and compared with the value of appropriate standard inhibitor (Table 1).
(§1) IC50 determinations. OriginPro 8 was used to determine IC50 values from the sigmoidal line fitted to a graph of log[concentration] against the average percentage inhibition from two independent experiments, with at least 6 different concentrations. The SEM is the calculated standard error in the IC50 value of the fitted line.

Assay [1] in a line: Competition with DMSO for hydroxyl radicals. The settings on record: compound at 100 µM, Fe3+/ascorbic acid, DMSO 33 mM. Here is the method: Competition of the novel pteridine derivatives with dimethyl sulfoxide for hydroxyl radicals was measured. […] The majority of the derivatives were excellent scavengers of hydroxyl radicals with activity higher than the reference compound 6-hydroxy-2,5,7,8-tetramethylchroman-2-carboxylic acid (Trolox).
Competition of pteridine derivatives with DMSO for hydroxyl radicals
Hydroxyl radicals generated by the Fe^3+/ascorbic acid system were detected by determination of formaldehyde produced from the oxidation of DMSO, according to the procedure of Nash. The reaction mixture comprised ethylenediaminetetracetic acid (EDTA) (0.1 mM), Fe^3+ (167 μM), DMSO (33 mM) in phosphate buffer (50 mM, pH 7.4), ascorbic acid (10 mM) and the compound to be tested at 100 µM. After incubation at 37 °C for 30 min the mixture was quenched with aqueous trichloroacetic acid (17% w/v) (Table 2) and the percentage competition of the tested compounds with DMSO for hydroxyl radicals was determined (Table 2).

The nature of assay [2]: Inhibition of linoleic acid peroxidation (AAPH). The following applies: linoleic acid peroxidation initiated by AAPH, 37 °C, pH 7.4.
Source text: Azo compounds that generate free radicals through spontaneous thermal decomposition are useful for in vitro studies of free radical production. The water-soluble AAPH has been extensively used as a clean and controllable source of thermally produced alkylperoxyl free radicals. […] Evidently, the presence of 6,7-dimethyl groups on the pteridine ring greatly enhances protection against lipid peroxidation; the nature of the alkyl group and ring size on the 2-substituent has some, but much less, effect. […] The role of lipophilicity (as assessed from calculated clogP values; Table 1) is not clear, but substituent bulk plays a significant role.
Inhibition of linoleic acid peroxidation
Production of conjugated diene hydroperoxide by oxidation of linoleic acid in an aqueous dispersion was monitored at 234 nm. 2,2’-Azobis(2-amidinopropane) dihydrochloride (AAPH) was used as a free radical initiator. This assay was used to follow oxidative changes and to determine the inhibition of the peroxidation of sodium linoleate by each tested compound. A dispersion of sodium linoleate (16 mM, 10 μL) was added to the UV cuvette containing phosphate buffer (0.05 M, 0.93 mL) at pH 7.4 and kept in a thermostat at 37 °C. The oxidation reaction was initiated at 37 °C under air by the addition of AAPH solution (40 mM, 50 μL). Oxidation was carried out in the presence of aliquots (10 μL) of the tested compound. In the assay without antioxidant, lipid oxidation was measured in the presence of DMSO (10 μL). The rate of oxidation at 37 °C was monitored by recording the increase in absorption at 234 nm caused by conjugated diene hydroperoxide formation (Table 2).
as §1

In general, IC50 refers to the concentration needed to halve the response being measured. As for `CN1CCN(c2nc(NCc3cccs3)c3nccnc3n2)CC1` [Compound 18f, 2-(4-methylpiperazin-1-yl)-N-(thiophen-2-ylmethyl)pteridin-4-amine], the IC50 on soybean lipoxygenase came out at 55 ± 0.8 µM; in assay [2], 100 ± 1.5 µM. The “Hydroxyl radicals scavenged (%)” value in assay [1] is recorded as 96%.
